Measurements taken from ChEMBL document CHEMBL3507680, “University of Dundee, Gates Library screen for HepG2 cell viability”.

Test: Human HepG2 cell viability assay in 384 well format
Format: toxicity, cell-based
Design: dose 125 nL, time 70.5 hour; concentration not given beside the values
Conditions: HepG2 cells, read-out: Inhibition

CCOCCN1CCN(Cc2nc(C3CC3)no2)CC1CC (configuration not stated)
cytotoxicity at 70.5 h: 18.8%

CC(C)(C)C(=O)NCCC(=O)NS(=O)(=O)c1ccc2c(c1)OCCO2
cytotoxicity at 70.5 h: 0.749%

COCC(NC(=O)c1cnn(C)c1)c1cccc(C(F)(F)F)c1 (configuration not stated)
cytotoxicity at 70.5 h: 2.36%

Cn1nc2c(cc1=O)CN(CCc1nc3ccccc3c(=O)[nH]1)CC2
cytotoxicity at 70.5 h: 1.45%

O=C(Nc1cccnc1)N1CCC(n2ccc(C(F)(F)F)n2)CC1
cytotoxicity at 70.5 h: -3.71%

Cc1cccc(C(=O)N2CCN(S(C)(=O)=O)[C@@H](C)C2)c1C
cytotoxicity at 70.5 h: -0.781%

CCC1CN(Cc2ccccc2)CCN1Cc1nnc(C2CCC2)o1 (configuration not stated)
cytotoxicity at 70.5 h: -0.161%

CSC(C)C(=O)NCCCc1cc(N)n(-c2ccccc2)n1 (configuration not stated)
cytotoxicity at 70.5 h: 1.73%

Cc1n[nH]c(C2CN(C(=O)CCc3ccsc3)CCO2)n1 (configuration not stated)
cytotoxicity at 70.5 h: -5.2%

CCc1ccccc1C(=O)N1CCN(S(C)(=O)=O)[C@@H](C)C1
cytotoxicity at 70.5 h: -9.19%

CC(C)OCCOCc1cccc(NC(=O)NCc2ccncc2)c1
cytotoxicity at 70.5 h: 2.35%

COc1cc(NC(=O)c2ccccc2F)c(C(=O)N(C)C)cc1OC
cytotoxicity at 70.5 h: -10.5%

NC(=O)c1ccc(N2CCCCC2)c(NC(=O)c2cc(Br)ccc2F)c1
cytotoxicity at 70.5 h: -5.55%

Cc1cc(CN(C)C(=O)C2CCCN(C(=O)c3cccs3)C2)no1 (configuration not stated)
cytotoxicity at 70.5 h: -10.3%

N#Cc1ccc(OCCNc2cccc(C(=O)N3CCOCC3)c2)cc1
cytotoxicity at 70.5 h: -13.9%

Cc1cc(CNC(=O)NC(C)c2ccncc2)no1 (configuration not stated)
cytotoxicity at 70.5 h: -9.9%

CCc1noc(C(C)N2CCC(NC(=O)c3ccc(C)s3)CC2)n1 (configuration not stated)
cytotoxicity at 70.5 h: -7.01%

CC(C)(C)c1ccc(C2(C(=O)NCCCS(C)(=O)=O)CC2)cc1
cytotoxicity at 70.5 h: -1.31%

O=C(C1CCOC1)N1CCC2(CC1)CN(Cc1nccs1)CCO2 (configuration not stated)
cytotoxicity at 70.5 h: -2.99%

Cc1noc(C)c1CN1CC[C@H]2C[C@H](c3nccs3)O[C@@H]2C1
cytotoxicity at 70.5 h: -9.22%

O=C(C1CCOC1)N1CCC2(CCN(Cc3nccs3)CC2)CC1 (configuration not stated)
cytotoxicity at 70.5 h: -15.1%

COc1cc(N2CC[C@@H](O)[C@@H]2Cc2ccccc2)ncn1
cytotoxicity at 70.5 h: -5.14%

O=C(c1ccoc1)N1CC[C@@H]2O[C@@H](COCc3ccccn3)CC[C@@H]21
cytotoxicity at 70.5 h: -3.1%

CCOC[C@]12COC[C@H]1CN(Cc1cccc(OC)c1)C2
cytotoxicity at 70.5 h: -5.95%

CCn1ncc2c1C(COCC1CC1)CN(C(=O)c1ccncn1)C2 (configuration not stated)
cytotoxicity at 70.5 h: -10.2%

Cc1noc([C@@H]2CCO[C@@H]3CCN(Cc4ccc(C)s4)C[C@@H]32)n1
cytotoxicity at 70.5 h: -10.1%

Cn1ncc2c1C(COCC1CC1)CN(C(=O)c1cscn1)C2 (configuration not stated)
cytotoxicity at 70.5 h: -7.06%

COCC(=O)N1CCC2(CC1)COCCN2Cc1ccc(F)cc1
cytotoxicity at 70.5 h: -11.6%

O=C(N1CCOCC1)N1C[C@H]2CN(Cc3nccs3)C[C@H]2C1
cytotoxicity at 70.5 h: 3.41%

CCOCC1CN(C(=O)c2ccnnc2)Cc2cnn(CC)c21 (configuration not stated)
cytotoxicity at 70.5 h: -6.52%

CNC(=O)CN1CCC12CCN(C(=O)Cc1ccccc1)C2 (configuration not stated)
cytotoxicity at 70.5 h: -17.2%

O=C(c1ccco1)N1CC[C@@H]2O[C@@H](COCCN3CCCC3)CC[C@@H]21
cytotoxicity at 70.5 h: -3.08%

c1cc(CN2C[C@@H]3OCCN(CC4CCCO4)[C@@H]3C2)cs1 (some centres not stated)
cytotoxicity at 70.5 h: -7.25%

COc1cccc(CN2C[C@@H]3COC[C@]3(COc3cccnc3)C2)c1
cytotoxicity at 70.5 h: 3.66%

COc1cccc(CN2C[C@@H]3COC[C@]3(CN3CCOCC3)C2)c1
cytotoxicity at 70.5 h: 6.49%

O=C1N(c2cncnc2)CCC12CCCN(Cc1cccnc1)C2 (configuration not stated)
cytotoxicity at 70.5 h: -3.72%

c1cc(COC[C@]23COC[C@H]2CN(CC2CCC2)C3)ccn1
cytotoxicity at 70.5 h: -11.8%

CNC(=O)CN1CCOCC12CCN(CCc1ccccc1)CC2
cytotoxicity at 70.5 h: -13.5%

COc1cc(N2C[C@@H]3COC[C@]3(COCc3ccccn3)C2)ncn1
cytotoxicity at 70.5 h: -4.79%

Fc1cnc(N2CCCC3(CCN(Cc4cccs4)C3)C2)nc1 (configuration not stated)
cytotoxicity at 70.5 h: -2.04%

c1ccc(CN2C[C@@H]3COC[C@]3(COCc3ccncc3)C2)nc1
cytotoxicity at 70.5 h: -2.45%

COc1ccc(CN2C[C@@H]3OCCN(CCN(C)C)[C@@H]3C2)cc1
cytotoxicity at 70.5 h: -3.2%
